O=[N+]([O-])c1cc([N+](=O)[O-])c(O)c(Cl)c1O
Settings	solubility (mole fraction)
in acetic acid, 299.35 K	0.00649
in acetic acid, 305.55 K	0.00872
in acetic acid, 311.45 K	0.0112
in acetic acid, 315.05 K	0.013
in acetic acid, 318.75 K	0.0149
in acetic acid, 321.85 K	0.0167
in acetic acid, 323.95 K	0.0179
in acetic acid, 327.65 K	0.0202
in acetic acid, 334.65 K	0.0248
in acetic acid, 336.45 K	0.026
in acetic acid, 340.45 K	0.0289
in acetic acid, 343.15 K	0.0308
in ethanol, 299.35 K	0.00297
in ethanol, 303.15 K	0.00355
in ethanol, 307.35 K	0.00428
in ethanol, 310.75 K	0.00493
in ethanol, 314.25 K	0.00568
in ethanol, 317.65 K	0.00648
in ethanol, 320.15 K	0.00711
in ethanol, 326.35 K	0.00882
in ethanol, 329.85 K	0.00989
in ethanol, 332.65 K	0.0108
in ethanol, 335.45 K	0.0118
in ethanol, 339.15 K	0.0131
in ethanol, 343.75 K	0.0148
in ethyl acetate, 298.75 K	0.0449
in ethyl acetate, 302.65 K	0.0474
in ethyl acetate, 306.25 K	0.0498
in ethyl acetate, 309.95 K	0.0525
in ethyl acetate, 313.85 K	0.0555
in ethyl acetate, 318.15 K	0.0589
in ethyl acetate, 323.15 K	0.0633
in ethyl acetate, 327.25 K	0.067
in ethyl acetate, 331.85 K	0.0716
in ethyl acetate, 333.35 K	0.0731
in ethyl acetate, 337.15 K	0.0772
in ethyl acetate, 342.55 K	0.0834
in ethyl acetate, 344.95 K	0.0863
in methanol, 299.75 K	0.00172
in methanol, 305.95 K	0.00239
in methanol, 308.75 K	0.00277
in methanol, 311.25 K	0.00316
in methanol, 313.65 K	0.00359
in methanol, 315.95 K	0.00406
in methanol, 318.15 K	0.00456
in methanol, 320.75 K	0.00524
in methanol, 323.35 K	0.006
in methanol, 327.05 K	0.00731
in methanol, 330.15 K	0.0086
in water, 298.85 K	3.49e-05
in water, 301.15 K	3.65e-05
in water, 303.65 K	4.23e-05
in water, 306.35 K	4.59e-05
in water, 309.05 K	4.86e-05
in water, 311.35 K	5.44e-05
in water, 313.35 K	5.67e-05
in water, 315.75 K	6.29e-05
in water, 318.15 K	6.8e-05
in water, 320.65 K	7.62e-05
in water, 323.15 K	8.17e-05
in water, 325.85 K	9.12e-05
in water, 327.45 K	9.79e-05
in water, 330.15 K	0.000106
in water, 332.25 K	0.000113
in water, 336.35 K	0.00013
in water, 339.55 K	0.000142
in water, 341.95 K	0.000152

Source: BigSolDB 2.1
